The values that follow are results of earlier work, collected in PMC12246617, “Cryo-EM structures reveal the PP2A–B55α and Eya3 interaction that can be disrupted by a peptide inhibitor” (The Journal of Biological Chemistry, 2025).

In the data set the test system is PP2A–B55. Particulars: 6,8-difluoro-4-methylumbelliferyl phosphate substrate; 30 mM Hepes [pH 7.0], 150 mM NaCl, 1 mM MnCl2, 1 mM DTT, 0.01% Triton X-100, 0.1 mg/ml BSA; ref 84 (Padi et al.); read-out: IC50 (phosphatase activity of PP2A–B55). The text has this:
To identify the factor that led to this discrepancy, we first repeated our as ...

In general, IC50 refers to the point on the concentration scale where inhibition reaches its midpoint. As for “Eya3 peptide: Eya3 peptide (residues 62–108) of Padi et al. (RSSNDYTSQMYSAKPYAHILSVPVSETAYPGQTQYQTLQQTQPYAVY; UniProt Q99504 62-108, looked up, fragment)”, the IC50 was 1100 ± 84 nM.
